Drawing on a melting point compilation (Tetko et al.), this text covers melting point for 114 compounds.

As usually defined, the melting point is the temperature, or range, at which the solid turns liquid. As for `O=C(C1=NOC2C(=O)N(c3ccccc3[N+](=O)[O-])C(=O)C12)c1ccc2ccccc2c1` (centres undefined), the melting point came to 176 °C.

As for `COc1ccc(O)c(C(=O)O)c1`, the melting point is 143 °C.

For the compound `N#Cc1cc(N)ccc1-n1cccc1`, the melting point lay within 135 to 136 °C.

`O=C1CN2CCOC2(c2ccccc2Cl)c2cc(Cl)ccc2N1` (centres undefined) returned a melting point of 203 °C.

Consider `CCC1C(C=NC(C)(C)C)=NC(C)(C)N1O` (centres undefined), for which the melting point fell in the range of 103 to 105 °C.

On to `N#CC=Cc1ccco1`, for which the melting point amounted to 38 °C.

On to `O=C(c1ccncc1)c1ccc(Cl)cc1`, for which the melting point was determined as 108 °C.

In turn, `CCOc1ccc(C(NC(=O)c2ccccc2)NC(=O)c2ccccc2)cc1OC` returned a melting point of 211 °C.

For `CC12CCC(=O)C(O)=C1CCC1C2CCC2(C)C1CCC2(C)O` (centres undefined), the melting point was determined as 170 °C.

`O=S(=O)(Cl)c1cnc(Cl)c(Br)c1`: the melting point stood at 68 °C.

In turn, `CC1CCC(C)(COC(=S)Nc2ccccc2)C1(C)C` (centres undefined) came in with a melting point of 101 °C.

With `CC(CCl)(CCl)C(=O)O`, the melting point fell in the range of 64 to 66 °C.

Turning to `O=C(NC(=O)c1c(F)cccc1F)Nc1cc(Cl)c(OC(F)(F)C(F)F)c(Cl)c1`, the melting point was 204 °C.

Compound `Nc1ccccc1S(N)(=O)=O` showed a melting point of 155 °C.

Turning to `Cc1cc(Cl)ncc1[N+](=O)[O-]`, the melting point was in the range of 36 to 40 °C.

Compound `O=[N+]([O-])c1ccc(OC(F)F)cc1` gave a melting point of 34 °C.

The compound `O=[N+]([O-])c1ccc(-c2csc3nc4ccccc4n23)cc1` returned a melting point of 232 to 235 °C.

Compound `O=c1[nH]cnc2c1ncn2C1CC(O)C(CO)O1` (centres undefined) returned a melting point of 250 °C.

For `CC(C)CCCC(C)C1CCC2C3CCC4=CC(=O)CCC4(C)C3CCC12C` (centres undefined), the melting point lay in the range of 79 to 82 °C.

Regarding `CC(O)CC(C)(C)C` (centres undefined), the melting point is -60 °C.

In turn, `Cc1ccc(C=O)cc1[N+](=O)[O-]` returned a melting point of 46 °C.

On to `O=C(O)/C=C/c1ccc(I)o1`, for which the melting point worked out at 145 °C.

`CC1CCCC(C)C1O` (centres undefined) returned a melting point of 32.5 °C.

For `CC(=O)OC1CCC2C3CCC45OC4C(=O)C=CC5(O)C3CCC12C` (centres undefined), the melting point was 178 °C.

For `CC(C)(Oc1ccc(Cl)cc1)C(N)=O`, the melting point fell in the range of 126 to 129 °C.

The compound `Cn1nc(-c2cc(OCC(=O)O)c(Cl)cc2F)c(Cl)c1OC(F)F` yielded a melting point of 126 °C.

The compound `CC(=O)Nc1ccc(C(F)(F)F)cc1Cl` came in with a melting point of 136 °C.

Consider `CC(C)(C)OC(=O)N1CC(O)C1`, for which the melting point came out at 40 °C.

Take `CCc1cccc(C)c1N`: the melting point was -25 °C.

Regarding `CC=C(OC)C(=O)O`, the melting point came out at 58 °C.

As to `COC(=O)c1ccccc1[N+](=O)[O-]`, the melting point was -13 °C.

For `S=c1[nH]ccn1-c1cccc(Cl)c1`, the melting point fell in the range of 161 to 163 °C.

For the compound `O=C(O)c1cc(O)ccc1O`, the melting point lay within 204 to 207 °C.

Regarding `CCc1ncc[nH]1`, the melting point lay within 83 to 87 °C.

Turning to `NCCCC(=O)O`, the melting point lay in the range of 197 to 204 °C.

`CC(=O)Nc1c(F)ccc([N+](=O)[O-])c1F` registered a melting point of 148 to 149 °C.

`CC1C(C(=O)NN)C1C(=O)NN` (centres undefined) came in with a melting point of 242 to 245 °C.

In the case of `Nc1c(CN2CCCCC2)c(=O)oc2ccccc12`, the melting point came out at 190 °C.

`COc1ccc(N=C=S)c([N+](=O)[O-])c1` registered a melting point of 111 to 113 °C.

The compound `Fc1cc(CCl)c2c(c1)COCO2` showed a melting point of 78 to 80 °C.

With `CCOc1ccc(N)c(N)c1`, the melting point amounted to 71.5 °C.

Turning to `O=C(O)C#Cc1cc(Br)cc(/C=C/C(=O)O)c1`, the melting point is 161 °C.

As to `CC(=C/C=N/NC(N)=O)C(C)(C)C`, the melting point came out at 148 °C.

For the compound `CC(C)c1ccc2cc(C(C)C)ccc2c1`, the melting point was 69 °C.

As to `COc1cc(N)c(Cl)cc1C(=O)NC1CCN(Cc2ccccc2)CC1`, the melting point was 194 °C.

`O=c1c(I)cn(CC(O)CO)cc1I` (centres undefined) displayed a melting point of 161 °C.

In turn, `O=C1OC(c2ccccc2)=N/C1=C/c1cc(/C=C2/N=C(c3ccccc3)OC2=O)c([N+](=O)[O-])cc1[N+](=O)[O-]` displayed a melting point of 266 °C.

As for `O=C(O)c1ccc(Br)c([N+](=O)[O-])c1`, the melting point came to 204 °C.

As for `Cc1cncc([N+](=O)[O-])c1`, the melting point was found to be 96 °C.

In turn, `CSc1nc2cc(N=Cc3ccc4c(c3)OCO4)ccc2[nH]1` displayed a melting point of 213 to 215 °C.

Compound `O=C(O)C1(c2ccc(Cl)cc2Cl)CC1` showed a melting point of 140 to 147 °C.

The compound `CC(C)=CCCC(C)=CC=CC(C)=CC=CC(C)=CC=CC=C(C)C=CC=C(C)C=CC1C(C)=CCCC1(C)C` (centres undefined) gave a melting point of 140 °C.

Compound `CC12CCC(=O)C(Cl)=C1CCC1C2CCC2(C)C(O)CCC12` (centres undefined) gave a melting point of 189 °C.

In the case of `O=C(CBr)c1cc2cc(Br)ccc2o1`, the melting point lay in the range of 140 to 141 °C.

On to `CC(=O)c1ccc(-c2ccc(Br)cc2)cc1`, for which the melting point was found to be 126 °C.

In turn, `Cc1nc(-c2ccccc2)sc1Br` returned a melting point of 60 °C.

Consider `CC1=C(c2ccccc2)Cc2ccccc21`, for which the melting point was found to be 75 °C.

With `O=C(O)CCCc1ccc(F)cc1`, the melting point is 45 to 47 °C.

With `Cc1cc(Cl)ccc1[N+](=O)[O-]`, the melting point lay in the range of 23 to 25 °C.

Turning to `CC(=O)OC1C(c2ccc(=O)oc2)C2(C)CCC3C(CCC4(O)CC(O)CCC34C)C23OC13` (centres undefined), the melting point came out at 260 °C.

`O=C(O)c1cc(I)ccc1O` had a melting point of 196 to 201 °C.

As to `COc1cccc(P(c2cccc(OC)c2)c2cccc(OC)c2)c1`, the melting point is 115 °C.

The compound `O=C(O)Cc1cc(F)ccc1F` gave a melting point of 125 °C.

`C[C@](N)(CO)C(=O)O` returned a melting point of 286 to 288 °C.

Consider `CN(C)c1ccc(C(=O)NN)cc1`, for which the melting point was 175 °C.

As to `CC1=C(C(=O)O)CCCO1`, the melting point turned out to be 119 °C.

As to `Cc1cc(O)no1`, the melting point came out at 86.5 °C.

As for `O=C(C(Br)Br)C(Br)(Br)Br`, the melting point was determined as 79.5 °C.

On to `Nc1cc(F)ccc1Br`, for which the melting point is 44 °C.

Take `C1OC1C1CO1` (centres undefined): the melting point is 4 °C.

`O=S(=O)(Cl)c1sc(Cl)cc1Br` came in with a melting point of 34 to 36 °C.

As to `O=C(CCl)c1ccc(C(=O)C(Cl)Cl)cc1`, the melting point stood at 147 °C.

Turning to `CC1C=CCCC1` (centres undefined), the melting point is -124 °C.

Take `COC(=O)C1(C(=O)OC)Cc2ccc(OC)cc2C(=O)O1`: the melting point stood at 142 °C.

`Oc1cc(Br)ccn1` displayed a melting point of 203 °C.

`CC1CC(O)CC(C)(C)C1` (centres undefined): the melting point turned out to be 55.8 °C.

The compound `NNC(=O)C(F)(F)F` gave a melting point of 111 to 115 °C.

Compound `O=S(=O)(c1ccccc1)c1cccs1` showed a melting point of 123 °C.

Regarding `COC1=C(O)C(=O)C(C)=C(O)C1=O`, the melting point turned out to be 202 °C.

The compound `O=C(O)c1cc(C(=O)O)c(C(=O)O)cc1C(=O)O` came in with a melting point of 281 to 284 °C.

On to `O=C(Oc1ccccc1)c1ccc(C(=O)Oc2ccccc2)cc1`, for which the melting point was found to be 197 °C.

`NNC(=O)c1ccc(C(F)(F)F)cc1`: the melting point turned out to be 121 °C.

Turning to `CCOC(=O)C(Cl)=Cc1cc(N2C(=O)C3=C(CCCC3)C2=O)ccc1Cl`, the melting point was found to be 112 °C.

In turn, `O=[N+]([O-])c1ccc(Oc2ccccc2)cc1` showed a melting point of 58 °C.

The compound `OCCN1CCCCC1C(c1ccccc1)c1ccccc1` (centres undefined) displayed a melting point of 106 °C.

`FC(F)(F)c1cc(-c2n[nH]c(=S)[nH]2)cc(C(F)(F)F)c1` came in with a melting point of 280 °C.

Compound `N#Cc1sc(Br)c2c1OCCO2` came in with a melting point of 149 to 150 °C.

On to `C=C[N+](=O)[O-]`, for which the melting point is -55.5 °C.

The compound `Cc1cc(O)c(C(C)C)cc1C1(c2cc(C(C)C)c(O)cc2C)OS(=O)(=O)c2ccccc21` registered a melting point of 221 °C.

For `Oc1noc2nc3ccccc3nc12`, the melting point was in the range of 320 to 325 °C.

In the case of `Cc1cnccc1N`, the melting point is 108 °C.

Turning to `CC(=O)N1CCc2ccccc21`, the melting point is 102 to 104 °C.

`Cc1nc(CC(=O)O)cs1`: the melting point was in the range of 124 to 125 °C.

As to `CC1=CC(O)c2ccccc21` (centres undefined), the melting point was 69 °C.

In turn, `N#Cc1ccccc1-n1ccnc1` yielded a melting point of 148 to 151 °C.

Compound `Cc1ccc(C=NC2=NC(C(F)(F)F)N=N2)cc1` (centres undefined) came in with a melting point of 208 °C.

As for `COc1ccc(S(=O)(=O)Cl)cc1F`, the melting point was 79 °C.

Turning to `C[Si](C)(C)O[Si](C)(C)O[Si](C)(C)O[Si](C)(C)O[Si](C)(C)C`, the melting point is -80 °C.

`CC(=O)c1c2ccccc2cc2ccccc12` returned a melting point of 74 °C.

Compound `Cc1c(Cl)c(Cl)c(C)c(Cl)c1Cl` showed a melting point of 216 °C.

Turning to `O=C(O)CP(=O)(O)O`, the melting point turned out to be 144 °C.

For the compound `Nc1nn2c(C(F)(F)F)cc(=O)[nH]c2c1/N=N/c1ccc(O)cc1`, the melting point turned out to be 268 °C.

In turn, `CNC(C)C1CCC(N)C(OC2C(N)CC(N)C(OC3OCC(C)(O)C(NC)C3O)C2O)O1` (centres undefined) returned a melting point of 105 °C.

The compound `CCN(CC)CC(=O)Nc1sc2c(c1C#N)CCCC2` registered a melting point of 170 to 171 °C.

`COC(=O)c1cc(S(=O)(=O)Cl)oc1C`: the melting point was in the range of 35 to 38 °C.

Regarding `C=C(C)c1ccc(C)cc1`, the melting point is -20 °C.

Turning to `NCCCNCCCN`, the melting point was -14 °C.

The compound `CCCCCc1ccc(-c2nnc(S)[nH]2)cc1` gave a melting point of 190 to 193 °C.

In turn, `COc1ccc(C(F)(F)F)cc1C(=O)O` yielded a melting point of 110 °C.

As to `Clc1cccc(Cl)c1CBr`, the melting point is 56 °C.

The compound `CC(=O)c1ccc(I)s1` gave a melting point of 128 °C.

For `Cc1cc([N+](=O)[O-])c(Cl)c([N+](=O)[O-])c1`, the melting point is 114 to 116 °C.

As to `CCOC(=O)c1c(NC(=S)Nc2ccccc2)sc2c1CCCC2`, the melting point was 189 to 191 °C.

In turn, `CCOC(=O)c1c(SC)nn(S(=O)(=O)c2ccc(OC)cc2)c1N` displayed a melting point of 143 to 145 °C.
